ChEMBL document CHEMBL1201862, “PubChem BioAssay data set” (2004)
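Five compound concentrations were applied to cells in 96-well plates for 48 hours; endpoints were derived by simple linear interpolation of the resulting dose-response curve. GI50: concentration for 50% inhibition of growth.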 Active and inactive are the calls of the source. Rule as the data show it: active = GI50 up to about 1.1 µM and inactive = higher.

What was measured:
Test in all cases: NCI anticancer screen, dose series, 48 h
786-0 = tested on: 786-0
A498 = tested on: A498
A549 = tested on: A549
ACHN = tested on: ACHN
BT-549 = tested on: BT-549
CAKI-1 = tested on: CAKI-1
CCRF-CEM = tested on: CCRF-CEM
COLO 205 = tested on: COLO 205
DU-145 = tested on: DU-145
EKVX = tested on: EKVX
HCC 2998 = tested on: HCC 2998
HCT-116 = tested on: HCT-116
HCT-15 = tested on: HCT-15
HL-60 = tested on: HL-60
HOP-92 = tested on: HOP-92
HT-29 = tested on: HT-29
Hs-578T = tested on: Hs-578T
IGROV-1 = tested on: IGROV-1
K562 = tested on: K562
KM12 = tested on: KM12
LOX IMVI = tested on: LOX IMVI
M14 = tested on: M14
MCF7 = tested on: MCF7
MDA-MB-231 = tested on: MDA-MB-231
MDA-MB-435 = tested on: MDA-MB-435
MDA-N = tested on: MDA-N
MOLT-4 = tested on: MOLT-4
Malme-3M = tested on: Malme-3M
NCI-H226 = tested on: NCI-H226
NCI-H23 = tested on: NCI-H23
NCI-H460 = tested on: NCI-H460
NCI-H522 = tested on: NCI-H522
NCI/ADR-RES = tested on: NCI/ADR-RES
OVCAR-3 = tested on: OVCAR-3
OVCAR-4 = tested on: OVCAR-4
OVCAR-5 = tested on: OVCAR-5
OVCAR-8 = tested on: OVCAR-8
PC-3 = tested on: PC-3
RPMI-8226 = tested on: RPMI-8226
RXF 393 = tested on: RXF 393
SF-268 = tested on: SF-268
SF-295 = tested on: SF-295
SF-539 = tested on: SF-539
SK-MEL-28 = tested on: SK-MEL-28
SK-MEL-2 = tested on: SK-MEL-2
SK-MEL-5 = tested on: SK-MEL-5
SK-OV-3 = tested on: SK-OV-3
SN12C = tested on: SN12C
SNB-19 = tested on: SNB-19
SNB-75 = tested on: SNB-75
SW-620 = tested on: SW-620
T47D = tested on: T47D
TK-10 = tested on: TK-10
U-251 = tested on: U-251
UACC-257 = tested on: UACC-257
UACC-62 = tested on: UACC-62
UO-31 = tested on: UO-31

For Cc1cc(N(C)C)c2ccccc2[n+]1CCCCCCCCCC[n+]1c(C)cc(N(C)C)c2ccccc21.[O-][Cl+3]([O-])([O-])[O-].[O-][Cl+3]([O-])([O-])[O-], which GI50 (786-0) is on record?
The GI50 was 2590 nM (inactive).

And the GI50 (A498)?
Its GI50 is 2070 nM (inactive).

And the GI50 (A549)?
Its GI50 is 587 nM (active).

And the GI50 (ACHN)?
Its GI50 is 1480 nM (inactive).

What about the GI50 (BT-549) of the same compound?
Its GI50 is 676 nM (active).

And the GI50 (CAKI-1)?
The GI50 was 7500 nM (inactive).

What about the GI50 (CCRF-CEM) of the same compound?
Its GI50 is 577 nM (active).

And the GI50 (COLO 205)?
The GI50 was 265 nM (active).

What about the GI50 (DU-145) of the same compound?
Its GI50 is 1580 nM (inactive).

What about the GI50 (EKVX) of the same compound?
The GI50 was 1320 nM (inactive).

What about the GI50 (HCC 2998) of the same compound?
Its GI50 is 893 nM (active).

And the GI50 (HCT-116)?
Its GI50 is 743 nM (active).

What about the GI50 (HCT-15) of the same compound?
The GI50 was 3810 nM.

What about the GI50 (HL-60) of the same compound?
The GI50 was 275 nM (active).

What about the GI50 (HOP-92) of the same compound?
Its GI50 is 1640 nM (inactive).

And the GI50 (HT-29)?
The GI50 was 429 nM (active).

What about the GI50 (Hs-578T) of the same compound?
The GI50 was 1520 nM (inactive).

And the GI50 (IGROV-1)?
Its GI50 is 6050 nM (inactive).

What about the GI50 (K562) of the same compound?
Its GI50 is 128 nM (active).

And the GI50 (KM12)?
The GI50 was 282 nM (active).

And the GI50 (LOX IMVI)?
The GI50 was 871 nM (active).

And the GI50 (M14)?
Its GI50 is 2330 nM (inactive).

What about the GI50 (MCF7) of the same compound?
Its GI50 is 434 nM (active).

And the GI50 (MDA-MB-231)?
Its GI50 is 491 nM (active).

And the GI50 (MDA-MB-435)?
Its GI50 is 516 nM (active).

What about the GI50 (MDA-N) of the same compound?
Its GI50 is 485 nM (active).

What about the GI50 (MOLT-4) of the same compound?
Its GI50 is 687 nM (active).

What about the GI50 (Malme-3M) of the same compound?
Its GI50 is 11000 nM (inactive).

What about the GI50 (NCI-H226) of the same compound?
The GI50 was 3330 nM (inactive).

And the GI50 (NCI-H23)?
Its GI50 is 202 nM (active).

And the GI50 (NCI-H460)?
Its GI50 is 348 nM (active).

What about the GI50 (NCI-H522) of the same compound?
Its GI50 is 6100 nM (inactive).

And the GI50 (NCI/ADR-RES)?
The GI50 was 13700 nM (inactive).

And the GI50 (OVCAR-3)?
The GI50 was 486 nM (active).

What about the GI50 (OVCAR-4) of the same compound?
The GI50 was 1630 nM (inactive).

What about the GI50 (OVCAR-5) of the same compound?
The GI50 was 3300 nM (inactive).

And the GI50 (OVCAR-8)?
The GI50 was 1070 nM (active).

And the GI50 (PC-3)?
The GI50 was 589 nM (active).

And the GI50 (RPMI-8226)?
The GI50 was 128 nM (active).

And the GI50 (RXF 393)?
The GI50 was 5270 nM (inactive).

What about the GI50 (SF-268) of the same compound?
Its GI50 is 731 nM (active).

What about the GI50 (SF-295) of the same compound?
The GI50 was 1470 nM (inactive).

And the GI50 (SF-539)?
Its GI50 is 991 nM (active).

And the GI50 (SK-MEL-28)?
Its GI50 is 986 nM (active).

And the GI50 (SK-MEL-2)?
The GI50 was 962 nM (active).

And the GI50 (SK-MEL-5)?
Its GI50 is 165 nM (active).

And the GI50 (SK-OV-3)?
Its GI50 is 735 nM (active).

And the GI50 (SN12C)?
The GI50 was 251 nM (active).

And the GI50 (SNB-19)?
Its GI50 is 512 nM (active).

And the GI50 (SNB-75)?
The GI50 was 470 nM (active).

And the GI50 (SW-620)?
Its GI50 is 1920 nM (inactive).

And the GI50 (T47D)?
Its GI50 is 428 nM (active).

And the GI50 (TK-10)?
The GI50 was 3290 nM (inactive).

What about the GI50 (U-251) of the same compound?
Its GI50 is 124 nM (active).

What about the GI50 (UACC-257) of the same compound?
The GI50 was 238 nM (active).

And the GI50 (UACC-62)?
The GI50 was 989 nM (active).

And the GI50 (UO-31)?
Its GI50 is 3380 nM (inactive).
